Experimental data taken from US12198788B2, “System for detecting an intraoral disease and determining a personalized treatment scheme and method of doing same” (priority 2017, dated 2025).

Tests used:
dental plaque microbes = assay: Culture of dental plaque microbes, streak applied to inoculum, 2 days incubation (FIG. 5); assay type: cell-based; conditions: 2 days of incubation
[1] = test system: dental pulp tissue (dental pulp extraction with chronic pulpitis); assay: Live bacterial cell counting after cannabinoid treatment, dental pulp tissue; assay type: cell-based, human
Experimental: (§1) Summary: The method includes: • a. randomized sampling of oral plaque biofilm from different consumers with 0-+4 DPSI, dental pulp extraction with chronic pulpitis; • b. cultivation of the samples in incubator with 37° C., for 1 day. The colonies underwent treatment with different types of compounds CBC, CBD, CBG, CBGA, CBN for 5 minutes; • c. staining with fluorescent special dyes for live bacterial cells, following the cannabinoid compounds' treatment and using one referral without cannabinoids treatment; • d. mounting on 6 channel micro slide dishes with 0.1 high; • e. imaging with Cytetion 5 Biotek microscope on 40 magnification, analyzing and running live cell counting.
Experimental methods: FIG. 6 depicts the steps of the methodology used in this protocol. The methodology includes the following steps: • a. Sample cultivation: Samples are collected with Flexi Grip 1702 Paro interdental brush. Cultivation on AGAR Petri Dish 100/15 mm incubated for 24 hours in 37° C. • b. Compound Treatment: The colonies are treated with 25%, 12.5% dilutions from 5 different type extracts from grower A+B. 0.5 μL compound were place in each vial, 3 colony spots were added, the mixture was agitated in centrifuge with 6-8.000 rpm for 1.5 min and suspended in 500 μL PBS. • c. Staining Mounting: Staining kit Bacstain—CTC Rapid Staining kit BS02 was used. All 5 samples and 1 referral were stained. […]

[2] = test system: human oral biofilms (dental plaque); assay: Live bacterial cell counting (CTC staining, Cytation 5 imaging) after cannabinoid treatment of dental plaque colonies; assay type: cell-based
Experimental: This study evaluates different extracts/compounds on different types of human oral biofilms that normally are plaque-generating, further inducing light to severe periodontal diseases, as scored by DPSI (Dutch periodontic screening index).
as §1, with “counting. […]” for “counting.”
The same procedure was employed on the second slide with the cells treated with 25% dilution of the cannabinoid of grower B. Accordingly slide 3 had the cells from grower A with 12.5% dilution and slide 4 had the cells 12.5% dilution from grower B. • d. […] Imaging modes include fluorescence, brightfield, color brightfield and phase contrast for a broad range of applications including live cell imaging, phenotypic assays, and 3D spheroids. […]

[3] = test system: dental bacteria taken from various patients (oral flora); assay: In vitro determination of sensitivity of dental biofilm flora from individual patients to cannabinoid test panels; assay type: cell-based
Text: Methods of the present invention are hereby exemplified. The trial included two stages: • a. Stage 1: In vitro determination of sensitivity of dental biofilm flora from individual patients to cannabinoid test panels. • b. Stage 2: Effectiveness of toothpaste compounded to individual patient's best cannabinoid panel formulations. Stage 1: In Vitro Determination of Sensitivity of Dental Biofilm Flora from Individual Patients to Cannabinoid Test Panels.
Ten (10) subjects (patients A-J) were involved in the trial. Dental biofilm was collected of these subjects by means of swabs, scrapes and other devices. The bacteria of this dental biofilm were characterized by conventional methods such as growth on selective media, microscopic examination and lab on-chip-laser analysis (e.g. Parochip).
Patient's bacteria from patients A-J were tested in vitro on substrates seeded with a panel of cannabinoids as illustrated in table 1 below:
Column Panels: • 1=CBDA; • 2=CBDA+CBNA; • 3=CBDA+CBNA+CBGA; • 4=CBDA+CBNA+CBGA+CBCA; • 5=CBDA+CBNA+CBGA+CBCA+CBNDA; • 6=Chlorohexadine control, and • 7=control with no antiseptic.
Results of in vitro testing are defined in terms of efficacy of panel cannabinoids in in vitro suppressing oral flora, in increasing scale of: • −, +, ++, +++, ++++, +++++

| Compound | bacterial growth at streak applied to inoculum (dental plaque microbes) | reduction from the live bacterial cells [1] | most efficient compound on the plaque of the consumer ([2]; 25% dilution, grower A, FIG. 10) | reduction from the live bacterial cells ([2]; dental plaque) | effectiveness against the flora (in words) ([3]; flora of patient B) | in vitro effectiveness of cannabinoids on dental bacteria ([3]; oral flora sample of patient A) | in vitro effectiveness of cannabinoids on dental bacteria ([3]; oral flora sample of patient B) | in vitro effectiveness of cannabinoids on dental bacteria ([3]; oral flora sample of patient C) | in vitro effectiveness of cannabinoids on dental bacteria ([3]; oral flora sample of patient D) | in vitro effectiveness of cannabinoids on dental bacteria ([3]; oral flora sample of patient E) | in vitro effectiveness of cannabinoids on dental bacteria ([3]; oral flora sample of patient F) | in vitro effectiveness of cannabinoids on dental bacteria ([3]; oral flora sample of patient G) | in vitro effectiveness of cannabinoids on dental bacteria ([3]; oral flora sample of patient H) | in vitro effectiveness of cannabinoids on dental bacteria ([3]; oral flora sample of patient I) | in vitro effectiveness of cannabinoids on dental bacteria ([3]; oral flora sample of patient J) |
| --- | --- | --- | --- | --- | --- | --- | --- | --- | --- | --- | --- | --- | --- | --- | --- |
| C=C(C)[C@@H]1CCC(C)=C[C@H]1c1c(O)cc(CCCCC)cc1O [CBD, Cannabidiol] | no bacterial growth | 92% |  |  |  |  |  |  |  |  |  |  |  |  |  |
| CCCCCc1cc(O)c(C/C=C(\C)CCC=C(C)C)c(O)c1C(=O)O [CBGA, Cannabigerolic acid] |  |  | most efficient | 95% |  |  |  |  |  |  |  |  |  |  |  |
| C=C(C)[C@@H]1CCC(C)=C[C@H]1c1c(O)cc(CCCCC)c(C(=O)O)c1O [Panel 1, Cannabidiolic acid] |  |  |  |  | effective | ++ | +++++ | ++++ | + | +++ | − | +++++ | ++ | − | − |
| [H]/N=C(\N/C(=N/[H])NCCCCCCNC(=N)NC(=N)Nc1ccc(Cl)cc1)Nc1ccc(Cl)cc1 [Panel 6, Chlorhexidine, reference compound] |  |  |  |  |  | ++ | ++ | + | ++ | − | − | +++ | + | ++ | − |
